This is an account of results in patent US12280036B2, “Using fatty acid synthase inhibitors to treat fibrosis” (Mayo Foundation for Medical Education and Research, priority 2016, dated 2025).

Data set [1] has as its system profibrotic TGFβ signaling. In words: Western blot of TGFβ induced profibrotic proteins in AKR-2B fibroblasts. The class given is cell-based, murine. The conditions noted are these: C75 3 μM, TGFβ 10 ng/ml, 24 hours. As for the experimental part: (§1) Murine fibroblasts (AKR-2B) and human lung fibroblasts (MRCS) were treated for 24 hours with vehicle (0.025% DMSO) or C75 (FASN inhibitor, 3 μM) in the presence or absence of TGFβ (10 ng/ml). Proteins were obtained from treated and control cells. Protein samples were Western blotted for FASN, Col I, Col IV, FN, CTGF, and pSmad3, and Western blotted for GAPDH as a loading control. TGFβ increased expression of FASN, Col I, Col IV, FN, CTGF, and pSmad3, but inhibition of FASN activity with C75 suppressed TGFβ induced Col I, Col IV, and FN expression (FIG. 4A).
(§2) Murine fibroblasts (AKR-2B) and human lung fibroblasts (MRCS) were transfected with either a nontargeting control siRNA (60 nmol/L) or with FASN-targeting siRNA (60 nmol/L). After 72 hours of cultivation, the transient transfectants were stimulated in the absence or presence of 10 ng/ml TGFβ for 24 hours. Proteins were obtained from treated and control cells. Protein samples were Western blotted for FASN, Col I, Col IV, FN, CTGF, and pSmad3, and Western blotted for GAPDH as a loading control. TGFβ increased expression of FASN, Col I, Col IV, FN, CTGF, and pSmad3, but inhibition of FASN activity with FASN-targeting siRNA suppressed TGFβ induced Col I, Col IV, and FN expression (FIG. 5A).
Background: A western blot detects proteins with antibodies after separation by electrophoresis.

In data set [2] the test system is profibrotic TGFβ signaling. In words: Western blot of TGFβ induced profibrotic proteins in MRCS lung fibroblasts. In kind it is cell-based, human. Conditions: C75 3 μM, TGFβ 10 ng/ml, 24 hours. The protocol: as §1, §2
Data set [3] relates to AKR-2B cells. In words: Soft agar colony formation assay. Conditions: 0, 0.3, 1, 3, or 10 μM C75, TGFβ 10 ng/ml, 7 days growth, dose dependent. The class given is cell-based, murine. As for the experimental part:
Murine fibroblasts (AKR-2B) were treated for 24 hours with vehicle (0.025% DMSO) or C75 (FASN inhibitor, 3 μM) in the presence or absence of TGFβ (10 ng/ml), and 0, 0.3, 1, 3, or 10 μM C75. Following 7 days growth, cells were subjected to soft agar colony formation assays. TGFβ increased colony formation, but inhibition of FASN activity with C75 suppressed TGFβ induced colony formation in a dose dependent manner (FIG. 4B; *p-value<0.05, **p-value<0.01). Data reflect the mean+/−standard deviation of triplicate wells from 3 experiments.
Murine fibroblasts (AKR-2B) were transfected with either a nontargeting control siRNA (60 nmol/L) or with FASN-targeting siRNA (60 nmol/L). After 72 hours of cultivation, the transient transfectants were stimulated in the absence or presence of 10 ng/ml TGFβ for 24 hours. Following 7 days growth, cells were subjected to soft agar colony formation assays. TGFβ increased colony formation, but inhibition of FASN activity with FASN-targeting siRNA suppressed TGFβ induced colony formation (FIG. 5B; **p-value<0.01). Data reflect the mean standard deviation of triplicate wells from 3 experiments.

Data set [4] concerns AKR-2B cells. The data set is described as follows: Scratch assay (cell migration), AKR-2B. The class given is cell-based, murine. Conditions: C75 3 μM, TGFβ 10 ng/ml, 24 hours. The protocol:
(§3) Murine fibroblasts (AKR-2B) and human lung fibroblasts (MRCS) were treated for 24 hours with vehicle (0.025% DMSO), TGFβ (10 ng/ml), or both TGFβ (10 ng/ml) and C75 (3 μM). Following 24 hours of treatment, culture plates were manually scratched. TGFβ increased cell migration, but inhibition of FASN activity with C75 suppressed TGFβ induced cell migration (FIG. 4C). Data are representative of 3 separate experiments.
Murine (AKR-2B) lung fibroblasts were transfected with either a nontargeting control siRNA (60 nmol/L) or with FASN-targeting siRNA (60 nmol/L). After 72 hours of cultivation, the transient transfectants were stimulated in the absence or presence of 10 ng/ml TGFβ for 24 hours. Following 24 hours of treatment, culture plates were manually scratched. TGFβ increased cell migration, but inhibition of FASN activity with FASN-targeting siRNA suppressed TGFβ induced cell migration (FIG. 5C). Data are representative of 3 separate experiments.

Data set [5] concerns MRCS cells. In words: Scratch assay (cell migration), MRCS. In kind it is cell-based, human. The conditions noted are these: C75 3 μM, TGFβ 10 ng/ml, 24 hours. As for the experimental part:
as §3

In data set [6] the test system is AKR-2B cells. The data set is described as follows: In vitro cell proliferation (MTT assay and cell counts), AKR-2B. In kind it is cell-based, murine. Conditions: C75 3 μM, 0.1% FBS or 10% FBS. The protocol: (§4) Murine fibroblasts (AKR-2B) and human lung fibroblasts (MRCS) were seeded at 2.5×10^3 or 1×10^4 cells/96 well plate, respectively. AKR-2B cells were seeded in medium containing 10% DMEM/FBS, and MRCS cells were seeded in medium containing 10% EMEM/FBS. 24 hours after seeding, the medium was removed and replaced with DMEM or EMEM containing vehicle (0.1% DMSO), or C75 (3 μM) either in 10%, 0.1%, or 0% FBS for 24 hours prior to MTT assay (FIG. 6A). Absorbance was measured at 570 nm. Results represent mean±SEM from three independent experiments
(§5) Murine fibroblasts (AKR-2B) and human lung fibroblasts (MRCS) were seeded at 1.0×10^4 cells/well in 24 well plates for 24 hours. AKR-2B cells were seeded in medium containing 10% DMEM/FBS, and MRCS cells were seeded in medium containing 10% EMEM/FBS. 24 hours after seeding, the medium was removed and replaced with DMEM or EMEM containing vehicle (0.1% DMSO), or C75 (3 μM) either in 10%, 0.1%, or 0% FBS for 24 hours prior to determining cell counts following an additional 24 hour and 48 hour incubation (FIG. 6B). Results represent mean±SEM from three independent experiments.
For orientation: Formazan colour is commonly taken as a measure of viable cells.

In data set [7] the test system is MRCS cells. In words: In vitro cell proliferation (MTT assay and cell counts), MRCS. In kind it is cell-based, human. The conditions noted are these: C75 3 μM, FBS free or 10% FBS. As for the experimental part:
as §4, §5

The nature of data set [8]: Serum liver enzymes in bleomycin or saline challenged mice. Conditions: 3.0 mg/kg C75 every 4th day from day 14; blood at days 0, 14, and 28. In kind it is in vivo, C57BL/6 mice. The protocol: C57BL/6 mice were intratracheally treated with an equal volume of saline (control) or bleomycin (BLM; 0.075 U). On day 14 all animals began treatment every 4th day with either vehicle (Methocel/saline) or 3.0 mg/kg of C75. Blood samples were obtained at days 0, 14, and 28 from the facial vein of unanesthetized animals and assessed for effect on liver enzymes. Serum levels (U/L, units per liter; g/dL, grams per deciliter) of alkaline phosphatase (ALP), alanine aminotransferase (ALT), and albumin were determined using a Piccolo Xpress Chemistry Analyzer (FIG. 7A). Data are presented as mean+/−SEM of n=5.

A short description of data set [9]: Blood inflammatory cells in bleomycin or saline challenged mice. In kind it is in vivo, C57BL/6 mice. Conditions: 3.0 mg/kg C75 every 4th day from day 14; blood at days 0, 14, and 28. As for the experimental part:
C57BL/6 mice were intratracheally treated with an equal volume of saline (control) or bleomycin (BLM; 0.075 U). On day 14 all animals began treatment every 4th day with either vehicle (Methocel/saline) or 3.0 mg/kg of C75. Blood samples were obtained at days 0, 14, and 28 from the facial vein of unanesthetized animals and assessed for effect on inflammatory cells. Quantification of lymphocytes, monocytes, and neutrophils were measured using a VetScan HM5 Analyzer (FIG. 7B). Data are presented as mean+/−SEM of n=5.

The test system of data set [10] is FN, CTGF, and Col I. In words: qPCR of profibrotic genes in lung tissue of bleomycin challenged mice. In kind it is in vivo. Conditions: 0.03, 0.3, or 3 mg/kg C75 intraperitoneal every 4th day from day 14, lung harvested day 28, dose dependent. The protocol:
Mice were challenged with bleomycin or vehicle (methocel/0.1% DMSO), and every 4th day, beginning 14 days following initial bleomycin insult, were treated by intraperitoneal injection with vehicle, 0.03 mg/kg, 0.3 mg/kg, or 3 mg/kg C75. Murine lung tissue was harvested on day 28 and RNA was obtained. qPCR was performed using primers specific for FN, CTGF, and Col I.
Data reflect mean standard deviation from lungs of n=5 (control, bleomycin, 0.03 mg/kg C75), 7 (0.3 mg/kg C75), or 8 (3 mg/kg C75) animals.
Background: Quantitative PCR measures a nucleic acid by following its amplification.

Data set [11] in a line: Oxygen saturation (SpO2) in bleomycin challenged mice. The class given is in vivo. The conditions noted are these: 0.03, 0.3, or 3 mg/kg C75 every 4th day from day 14, room air, dose dependent. As for the experimental part: Mice were challenged with bleomycin or saline for 25 days, and every 4th day, beginning 14 days following initial bleomycin insult, were treated with vehicle (methocel/0.1% DMSO) or with 0.03 mg/kg, 0.3 mg/kg, or 3 mg/kg C75. Oxygen saturation (SpO2) levels (determined on room air) were measured.
Bleomycin-induced fibrotic conditions caused reduced, time-dependent fluctuations in oxygen saturation, but inhibition of FASN activity with C75 stabilized lung gas exchange in a dose dependent manner (FIG. 7; *p-value<0.05, **p-value<0.01). Error bars reflect standard deviation from n=5 (control, BLM, 0.03 mg/kg C75), 7 (0.3 mg/kg C75), or 8 (3 mg/kg C75) animals.

The nature of data set [12]: Adenovirus-TGFβ model of pulmonary fibrosis. Conditions: adenovirus-TGFβ1 mice; 3.0 mg/kg C75 every 4th day from day 21; blood oxygen days 21 and 35, hydroxyproline and qPCR day 39. The class given is in vivo. As for the experimental part:
Mice were infected with 1×10^8 pfu adenovirus particles expressing control (GFP) or active TGFβ1 by tracheal instillation. On day 21 all animals began treatment every 4th day with either vehicle (Methocel/saline) or 3.0 mg/kg of C75. Peripheral blood oxygen determined on days 21 and 35 (FIG. 10A). Data reflect mean+/−SEM of n=8 and n=15 for adenovirus-GFP and adenovirus-TGFβ, respectively. *P<0.05. Mice were infected with 1×10^8 pfu adenovirus particles expressing control (GFP) or active TGFβ1 by tracheal instillation. On day 21 all animals began treatment every 4th day with either vehicle (Methocel/saline) or 3.0 mg/kg of C75. Mice were sacrificed on day 39 and processed for lung hydroxyproline content (FIG. 10B). Data reflect mean+/−SEM of n=8 and n=15 for adenovirus-GFP and adenovirus-TGFβ, respectively. **P<0.01. Mice were infected with 1×10^8 pfu adenovirus particles expressing control (GFP) or active TGFβ1 by tracheal instillation. On day 21 all animals began treatment every 4th day with either vehicle (Methocel/saline) or 3.0 mg/kg of C75. Mice were sacrificed on day 39 and processed for qPCR expression of connective tissue growth factor (CTGF), alpha smooth muscle actin (α-SMA), and collagen Iα1 (Col Iα1). Data reflect mean+/−SEM of n=8 and n=15 for adenovirus-GFP and adenovirus-TGFβ, respectively. *P<0.05, **P<0.01.

Data set [13] concerns FASN. In words: Western blot of TGFβ induced FASN expression in AKR-2B fibroblasts. The conditions noted are these: TGFβ 10 ng/ml, Rapamycin 100 nM, Torin 200 nM, 24 hours. In kind it is cell-based, murine. The protocol:
(§6) Murine fibroblasts (AKR-2B) and human lung fibroblasts (MRCS) were transfected with either a nontargeting control siRNA (60 nmol/L) or with Smad2/3-targeting siRNA (60 nmol/L). After 72 hours of cultivation, the transient transfectants were stimulated in the absence or presence of 10 ng/ml TGFβ for 24 hours. Proteins were obtained from treated and control cells. Protein samples were Western blotted for FASN, pSmad2, pSmad3, and connective tissue growth factor (CTGF), and Western blotted for GAPDH as a loading control.
(§7) Murine fibroblasts (AKR-2B) and human lung fibroblasts (MRCS) were stimulated in the absence or presence of TGFβ (10 ng/ml) plus a PI3K inhibitor (LY294002; 10 μM), a MEK inhibitor (U0126; 10 μM), an AKT inhibitor (MK2206; 0.3 μM), a mTORC1 inhibitor (Rapamycin; 100 nM), or a mTORC1,2 inhibitor (Torin; 200 nM). Expression of pErk and pS6K/pS6K was determined at 1 and 6 hours post-stimulation while FASN, pSmad3, and GAPDH assessed at 24 hours. TGFβ induced FASN expression was abrogated in the presence of rapamycin or torin (FIGS. 3C and 3D).

The test system of data set [14] is FASN. The data set is described as follows: Western blot of TGFβ induced FASN expression in MRCS lung fibroblasts. In kind it is cell-based, human. Conditions: TGFβ 10 ng/ml, Rapamycin 100 nM, Torin 200 nM, 24 hours. As for the experimental part: as §6, §7

As to `C=C1C(=O)OC(CCCCCCCC)C1C(=O)O` (centres unmarked) [C75], the “TGFβ induced Col I, Col IV, and FN expression” value in [1] and in [2] was “suppressed” each time. Further, the “TGFβ induced colony formation” value in data set [3] was “suppressed”. Moreover, the “TGFβ induced cell migration” value in data set [4] and in [5] was “suppressed” throughout. In addition, the “in vitro cell proliferation (OD570, cell counts)” value in data set [6] and in data set [7] was “does not inhibit” in each case. Further, the “murine liver enzymes (serum ALP, ALT, albumin)” value in data set [8] is reported as “no effect”. Moreover, the “inflammatory cell recruitment (lymphocytes, monocytes, neutrophils)” value in data set [9] is on record as “no effect”. Also, in data set [10], the “FN, CTGF, and Col I expression (qPCR, lung tissue)” value was “reduced”. Besides, the “lung gas exchange (oxygen saturation, SpO2)” value in data set [11] was “stabilized”. Besides, the lung function entry in data set [12] is “stabilizes lung function”.

Consider Torin, for which the “TGFβ induced FASN expression” value in data set [13] and in [14] was “abrogated” throughout.
